Values after ≈ are worked out from the molar mass of the structure shown.
Tests used:
Assay type in all cases: functional
Staphylococcus aureus [1] = test: Antibacterial activity against Staphylococcus aureus ATCC 25923 assessed as bacterial growth inhibition measured after 18 hrs by agar dilution assay
Escherichia coli [2] = test: Antibacterial activity against Escherichia coli ATCC 25922 assessed as bacterial growth inhibition measured after 18 hrs by agar dilution assay
Escherichia coli [3] = test: […] activity against Escherichia coli assessed as bacterial growth inhibition by broth dilution assay
Staphylococcus aureus [4] = test: Antibacterial activity against Staphylococcus aureus assessed as bacterial growth inhibition by two fold microdilution assay
Escherichia coli [5] = test: Antibacterial activity against Escherichia coli assessed as bacterial growth inhibition by two fold microdilution assay
Klebsiella pneumoniae [6] = test: Antibacterial activity against Klebsiella pneumoniae assessed as bacterial growth inhibition by two fold microdilution assay
Staphylococcus aureus [7] = test: Antibacterial activity against clinical isolate methicillin resistant Staphylococcus aureus assessed as bacterial growth inhibition by microdilution assay
Staphylococcus aureus [8] = test: Antibacterial activity against Staphylococcus aureus ATCC 25923 assessed as bacterial growth inhibition by microdilution assay
Staphylococcus aureus [9] = test: Antibacterial activity against Staphylococcus aureus assessed as bacterial growth inhibition by broth microdilution assay
Escherichia coli [10] = test: Antibacterial activity against fluoroquinolone Escherichia coli assessed as bacterial growth inhibition by broth microdilution assay
Escherichia coli [11] = test: Antibacterial activity against Escherichia coli assessed as bacterial growth inhibition by broth microdilution assay
Enterococcus faecalis = test: Antibacterial activity against Enterococcus faecalis assessed as bacterial growth inhibition by broth microdilution assay
Pseudomonas aeruginosa [12] = test: Antibacterial activity against Pseudomonas aeruginosa assessed as bacterial growth inhibition by broth microdilution assay
Pseudomonas aeruginosa [13] = test: Antibacterial activity against Pseudomonas aeruginosa assessed as bacterial growth inhibition by agar cup diffusion assay
Escherichia coli [14] = test: Antibacterial activity against Escherichia coli assessed as bacterial growth inhibition by agar cup diffusion assay
Staphylococcus aureus [15] = test: Potency index, ratio of ciprofloxacin MIC to test compound MIC for antimicrobial activity against Staphylococcus aureus assessed as bacterial growth inhibition by agar cup diffusion assay
Klebsiella pneumoniae [16] = test: Antibacterial activity against Klebsiella pneumoniae assessed as bacterial growth inhibition by agar cup diffusion assay
Staphylococcus aureus [17] = test: Antibacterial activity against Staphylococcus aureus assessed as bacterial growth inhibition by agar cup diffusion assay
Escherichia coli [18] = test: Potency index, ratio of ciprofloxacin MIC to test compound MIC for antimicrobial activity against Escherichia coli assessed as bacterial growth inhibition by agar cup diffusion assay
Staphylococcus aureus [19] = test: Antibacterial activity against methicillin resistant Staphylococcus aureus assessed as bacterial growth inhibition by agar cup diffusion assay
Escherichia coli [20] = test: Antibacterial activity against Escherichia coli ATCC 8739 assessed as bacterial growth inhibition by two fold microdilution assay
Staphylococcus aureus [21] = test: Antibacterial activity against Staphylococcus aureus ATCC 6538P assessed as bacterial growth inhibition by two fold microdilution assay
Pseudomonas aeruginosa [22] = test: Antibacterial activity against Pseudomonas aeruginosa ATCC 11632 assessed as bacterial growth inhibition measured after 24 to 48 hrs by agar dilution assay; settings: time 24-48 hrs
Escherichia coli [23] = test: Antibacterial activity against Escherichia coli ATCC 10536 assessed as bacterial growth inhibition measured after 24 to 48 hrs by agar dilution assay; settings: time 24-48 hrs

## Cc1ccc(-n2cc(CN3CCN(c4cc5c(cc4F)c(=O)c(C(=O)O)cn5C4CC4)CC3)nn2)cc1
Staphylococcus aureus [1]
  MIC: 0.12 µg/mL (≈ 0.239 µM)
Escherichia coli [2]
  MIC: 0.12 µg/mL (≈ 0.239 µM)

## CCCCc1nn(CN2CCN(c3ncc4c(=O)c(C(=O)O)cn(CC)c4n3)CC2)c(=S)n1-c1cccc(OC)c1
Escherichia coli [3]
  MIC: 0.98 µg/mL (≈ 1.69 µM)

## CCn1cc(C(=O)O)c(=O)c2cc(F)c(N3CCN(Cn4nc(Cn5nc(C)n(/N=C/c6ccccc6O)c5=O)n(-c5ccccc5)c4=O)CC3)cc21
Staphylococcus aureus [4]
  MIC: < 28 µg/mL
Escherichia coli [5]
  MIC: < 0.24 µg/mL
Klebsiella pneumoniae [6]
  MIC: < 0.24 µg/mL

## Cc1nn(Cc2nn(CN3CCN(c4cc5c(cc4F)c(=O)c(C(=O)O)cn5C4CC4)CC3)c(=O)n2-c2ccccc2)c(=O)n1/N=C/c1ccccc1O
Staphylococcus aureus [4]
  MIC: < 28 µg/mL
Escherichia coli [5]
  MIC: < 0.24 µg/mL
Klebsiella pneumoniae [6]
  MIC: < 0.24 µg/mL

## COc1c(N2C[C@H]3CCCN(S(=O)(=O)c4ccc(F)cc4)[C@H]3C2)c(F)cc2c(=O)c(C(=O)O)cn(C3CC3)c12
Staphylococcus aureus [7]
  MIC: < 2.64 µg/mL
Staphylococcus aureus [8]
  MIC: < 2.64 µg/mL

## C[C@H]1COc2c(N3CCN(C)CC3)c(F)cc3c(=O)c(C(=O)O)cn1c23 [LEVOFLOXACIN ANHYDROUS]
Staphylococcus aureus [9]
  MIC: 0.66 µg/mL (≈ 1.83 µM)
Escherichia coli [10]
  MIC: 0.47 µg/mL (≈ 1.3 µM)
Escherichia coli [11]
  MIC: 0.47 µg/mL (≈ 1.3 µM)
Enterococcus faecalis
  MIC: 0.72 µg/mL (≈ 1.99 µM)

## CCn1cc(C(=O)O)c(=O)c2cc(F)c(N3CCN(Cn4nc(-c5cnccn5)oc4=S)CC3)cc21
Pseudomonas aeruginosa [12]
  MIC: ≤ 0.125 µg/mL
Staphylococcus aureus [9]
  MIC: ≤ 0.125 µg/mL
Escherichia coli [11]
  MIC: ≤ 0.125 µg/mL

## COc1ccc(S(=O)(=O)N2CCC[C@@H]3CN(c4c(F)cc5c(=O)c(C(=O)O)cn(C6CC6)c5c4OC)C[C@@H]32)cc1
Staphylococcus aureus [7]
  MIC: < 2.64 µg/mL
Staphylococcus aureus [8]
  MIC: < 2.64 µg/mL

## O=C(CN1CCN(c2cc3c(cc2F)c(=O)c(C(=O)O)cn3C2CC2)CC1)Nc1nnc(-c2ccc(Cl)cc2)s1
Pseudomonas aeruginosa [13]
  MIC: 9.11 µg/mL (≈ 15.6 µM)
Escherichia coli [14]
  MIC: 1.12 µg/mL (≈ 1.92 µM)
Staphylococcus aureus [15]
  Ratio: 4.6
Klebsiella pneumoniae [16]
  MIC: 1.12 µg/mL (≈ 1.92 µM)
Staphylococcus aureus [17]
  MIC: 1120 ng/mL (≈ 1.92 µM)
Escherichia coli [18]
  Ratio: 4.6

## CCc1nn(CN2CCN(c3ncc4c(=O)c(C(=O)O)cn(CC)c4n3)CC2)c(=S)n1-c1cccc(OC)c1
Escherichia coli [3]
  MIC: 0.98 µg/mL (≈ 1.78 µM)

## O=C(CSC(=S)N1CCN(c2cc3c(cc2F)c(=O)c(C(=O)O)cn3C2CC2)CC1)Nc1cccc(Cl)c1
Pseudomonas aeruginosa [12]
  MIC: 0.024 µg/mL (≈ 0.0417 µM)
Staphylococcus aureus [9]
  MIC: 0.024 µg/mL (≈ 0.0417 µM)

## O=C(O)c1cn(C2CC2)c2cc(N3CCN(C(=O)CN4C(=O)S/C(=C\c5ccco5)C4=O)CC3)c(F)cc2c1=O
Staphylococcus aureus [19]
  MIC: 0.22 µg/mL (≈ 0.388 µM)
Staphylococcus aureus [17]
  MIC: 5 ng/mL (≈ 0.00883 µM)

## Cc1nn(Cc2nn(CN3CCN(c4cc5c(cc4F)c(=O)c(C(=O)O)cn5C4CC4)CC3)c(=S)n2Cc2ccccc2)c(=O)n1/N=C/c1ccccc1O
Staphylococcus aureus [4]
  MIC: < 28 µg/mL
Escherichia coli [5]
  MIC: < 0.24 µg/mL
Klebsiella pneumoniae [6]
  MIC: < 0.24 µg/mL

## CCCCCCOc1ccc(C2C(Cl)C(=O)N2c2cc3[nH]cc(C(=O)O)c(=O)c3cc2F)cc1 (configuration not stated)
Staphylococcus aureus [9]
  MIC: 0.02 µg/mL (≈ 0.0411 µM)
Escherichia coli [10]
  MIC: 0.02 µg/mL (≈ 0.0411 µM)
Escherichia coli [11]
  MIC: 0.02 µg/mL (≈ 0.0411 µM)
Enterococcus faecalis
  MIC: 0.02 µg/mL (≈ 0.0411 µM)

## COc1c(N2C[C@H]3CCCN(S(=O)(=O)c4ccc(Cl)cc4)[C@H]3C2)c(F)cc2c(=O)c(C(=O)O)cn(C3CC3)c12
Staphylococcus aureus [7]
  MIC: < 2.64 µg/mL
Staphylococcus aureus [8]
  MIC: < 2.64 µg/mL

## COc1c(N2C[C@H]3CCCN(S(=O)(=O)c4ccccc4)[C@H]3C2)c(F)cc2c(=O)c(C(=O)O)cn(C3CC3)c12
Staphylococcus aureus [7]
  MIC: < 2.64 µg/mL
Staphylococcus aureus [8]
  MIC: < 2.64 µg/mL

## CCn1cc(C(=O)O)c(=O)c2cc(F)c(N3CCN(Cn4nc(-c5ccncc5)n(-c5ccc(OC)cc5)c4=S)CC3)cc21
Escherichia coli [20]
  MIC: ≤ 0.125 µg/mL
Klebsiella pneumoniae [6]
  MIC: ≤ 0.125 µg/mL
Staphylococcus aureus [21]
  MIC: ≤ 0.125 µg/mL

## CCn1cc(C(=O)O)c(=O)c2cc(F)c(N3CCN(Cn4nc(-c5ccccn5)n(-c5ccc(OC)cc5)c4=S)CC3)cc21
Escherichia coli [20]
  MIC: ≤ 0.125 µg/mL
Klebsiella pneumoniae [6]
  MIC: ≤ 0.125 µg/mL
Staphylococcus aureus [21]
  MIC: ≤ 0.125 µg/mL

## CCCc1nn(CN2CCN(c3ncc4c(=O)c(C(=O)O)cn(CC)c4n3)CC2)c(=S)n1-c1cccc(OC)c1
Escherichia coli [3]
  MIC: 0.98 µg/mL (≈ 1.74 µM)

## O=C(O)c1cn(C2CC2)c2cc(N3CCN(C(=O)CN4C(=O)S/C(=C\c5ccccc5)C4=O)CC3)c(F)cc2c1=O
Staphylococcus aureus [19]
  MIC: 0.02 µg/mL (≈ 0.0347 µM)
Staphylococcus aureus [17]
  MIC: 5 ng/mL (≈ 0.00867 µM)

## Cn1c(=O)c(C(=O)CNc2ccc(-c3nc4ccc(Cl)c(Cl)c4s3)cc2)c(O)c2ccccc21
Pseudomonas aeruginosa [22]
  MIC: 0.5 µg/mL (≈ 0.98 µM)
Escherichia coli [23]
  MIC: 0.5 µg/mL (≈ 0.98 µM)

## CCn1cc(C(=O)O)c(=O)c2cc(F)c(N3CCN(Cn4nc(-c5cccnc5)oc4=S)CC3)cc21
Pseudomonas aeruginosa [12]
  MIC: ≤ 0.125 µg/mL
Staphylococcus aureus [9]
  MIC: ≤ 0.125 µg/mL
Escherichia coli [11]
  MIC: ≤ 0.125 µg/mL

## CCn1cc(C(=O)O)c(=O)c2cc(F)c(N3CCN(Cn4nc(-c5ccccc5O)n(-c5ccc(OC)cc5)c4=S)CC3)cc21
Escherichia coli [20]
  MIC: ≤ 0.125 µg/mL
Klebsiella pneumoniae [6]
  MIC: ≤ 0.125 µg/mL
Staphylococcus aureus [21]
  MIC: ≤ 0.125 µg/mL

## CCn1cc(C(=O)O)c(=O)c2cc(F)c(N3CCN(Cc4cn(-c5ccccc5)nn4)CC3)cc21
Staphylococcus aureus [1]
  MIC: 0.12 µg/mL (≈ 0.252 µM)
Escherichia coli [2]
  MIC: 0.12 µg/mL (≈ 0.252 µM)

## COc1c(N2CCNC(C)C2)c(F)cc2c(=O)c(C(=O)O)cn(C3CC3)c12 (configuration not stated) [GATIFLOXACIN]
Pseudomonas aeruginosa [22]
  MIC: 0.25 µg/mL (≈ 0.666 µM)
Escherichia coli [23]
  MIC: 0.25 µg/mL (≈ 0.666 µM)
Staphylococcus aureus [9]
  MIC: 0.72 µg/mL (≈ 1.92 µM)
Escherichia coli [10]
  MIC: 0.66 µg/mL (≈ 1.76 µM)
Escherichia coli [11]
  MIC: 0.66 µg/mL (≈ 1.76 µM)
Enterococcus faecalis
  MIC: 0.47 µg/mL (≈ 1.25 µM)
